Data taken from US20210137997A1 (priority 2016, published 2021).
Like-named read-outs stand apart in the source and are kept apart here.

Experiments:
[1] = tested on: acne-associated type IA-2 P. acnes strains; type: cell-based, Propionibacterium acnes
Experimental: (§1) P. acnes strains and cultures.
(§2) Extraction, identification, and quantification of extracellular porphyrins. For each strain, porphyrins were extracted using the method described by Kang et al. (Sci Transl Med 7:293ra103 (2015)). Briefly, 500 μL of bacterial culture was extracted in ethyl acetate and acetic acid (4:1, v/v), and solubilized in 1.5M HCl. The absorbance at 405 nm was measured from 200 μL of the soluble phase using a Tecan Genios Spectrophotometer M1000 (Tecan US Inc, Morrisville, N.C.). The standard curve to convert absorbance to concentration was generated using coproporphyrin III standards of known concentration (C654-3, Frontier Sci). Porphyrin levels were measured in P. acnes strain KPA171202 using the quantification method described by Wollenberg et al. (MBio 5:e01286-01214 (2014)). […] Porphyrins were extracted from cultures at stationary phase. […] Bacterial culture density was measured at OD595 for normalization of porphyrin levels. For mass spectrometry experiments, extracted porphyrins were directly injected onto an Agilent 6460 Triple Quad LC/MS system and each strain's m/z in the negative ion mode was identified.
(§3) Statistical analysis for porphyrin production comparisons. The average amount of porphyrins produced by each strain under each culture condition was calculated based on the data from at least three independent experiments, with at least three replicates for each. The porphyrin levels between strains, groups (acne-associated vs. health-associated), and culture conditions (with treatment vs. without treatment) were estimated in a linear mixed effect model, with random intercepts by trial to account for trial effects. P-values for specific comparisons among groups were corrected using Tukey's method. All statistical analysis was performed using R software (version 3.1.3).
(§4) To investigate whether different P. acnes strains produce the same porphyrin species, the types of porphyrins secreted by multiple P. acnes strains where characterized using mass spectrometry. Four acne-associated type IA-2 strains, HL053PA1 (RT4), HL045PA1 (RT4), HL043PA1 (RT5), and HL043PA2 (RT5), and three health-associated type II strains, HL001PA1 (RT2), HL103PA1 (RT2), and HL042PA3 (RT6), were examined (Table 1). No difference in the porphyrin species produced by these P. acnes strains was observed. Coproporphyrin III was the dominant porphyrin isomer produced by all strains ([M+H]^+=655.3). Minimal amounts of coproporphyrin I were also detected. Porphyrin levels are measured with the following method. Bacterial cells are collected, and porphyrins are extracted. The concentration of porphyrins is measured spectrophotometrically and normalized to the optical density (also measured spectrophotometrically). Porphyrin levels are therefore measured per bacterial unit.

P. acnes strains = type: cell-based, Propionibacterium acnes
Experimental: Common to most of the RT4 and RT5 strains, these strains harbor mutations in their 16S and 23S rRNA genes, which confer antibiotic resistance. […] To confirm the findings, an additional three type II strains, HL110PA3, HL106PA1, and HL050PA2, were also tested. […] For each experiment, 5 mL of reinforced clostridial broth was inoculated with 5×10^5 P. acnes cells per mL of culture. Cultures were grown to stationary phase anaerobically at 37° C. in a light-protected box. Cultures were supplemented on day 0 with vitamin B12 (10 μg/mL), 5-ALA (0.1 mg/mL), and/or LA (0.1 mg/mL). As controls, P. acnes strains were also cultured without supplementation. Three to five independent experiments with at least three replicates per experiment were performed for each strain, except strains HL110PA3, HL106PA1, and HL050PA2, which were tested in only one experiment with three replicates.
Extraction, identification, and quantification of extracellular porphyrins. For each strain, porphyrins were extracted using the method described by Kang et al. (Sci Transl Med 7:293ra103 (2015)). Briefly, 500 μL of bacterial culture was extracted in ethyl acetate and acetic acid (4:1, v/v), and solubilized in 1.5M HCl. The absorbance at 405 nm was measured from 200 μL of the soluble phase using a Tecan Genios Spectrophotometer M1000 (Tecan US Inc, Morrisville, N.C.). The standard curve to convert absorbance to concentration was generated using coproporphyrin III standards of known concentration (C654-3, Frontier Sci). Porphyrin levels were measured in P. acnes strain KPA171202 using the quantification method described by Wollenberg et al. (MBio 5:e01286-01214 (2014)). […] Porphyrins were extracted from cultures at stationary phase. […] Bacterial culture density was measured at OD595 for normalization of porphyrin levels. […]

[2] = tested on: health-associated type II P. acnes strains; test: Extracellular porphyrin production in culture, health-associated type II strains; type: cell-based, Propionibacterium acnes
Experimental: as §1, §2, §3, §4

[3] = tested on: cbiL (vitamin B12 biosynthesis gene) in HL025PA1; test: cbiL gene expression by qRT-PCR, HL025PA1; type: cell-based, Propionibacterium acnes; details: 10 μg/mL vitamin B12
Experimental: (§5) RNA extraction and cDNA synthesis. For cbiL and deoR gene expression analysis, cells were lysed with bead beating. Total RNA was extracted using the standard phenol-chloroform method and purified using RNeasy kit (Qiagen). DNA was removed using the Turbo DNA-free kit (Life Technologies). RNA quality was assessed using gel electrophoresis. Single-stranded complementary DNA (cDNA) was synthesized using SuperScript III First-Strand Synthesis SuperMix (Life Technologies).
(§6) Analysis of cbiL gene expression. qRT-PCR was performed using the LightCycler 480 High Resolution Melting Master Mix (Roche) on a LightCycler 480 (Roche) with the following primers: cbiL-forward, 5′-[…]-3′ (SEQ ID NO: 1), and cbiL-reverse, 5′-[…]-3′ (SEQ ID NO: 2). The following qRT-PCR protocol was used: initial denaturation at 95° C. for 5 min, followed by 50 cycles of 95° C. for 10 sec, 62° C. for 30 sec, and 72° C. for 30 sec. The fold change in cbiL gene expression between cultures with vitamin B12 supplementation and cultures without supplementation was calculated. The gene expression level of cbiL in each sample was normalized against the 16S rRNA transcript level. Melting curve analysis was performed using the Light Cycler 480 software Version 1.5 (Roche) to verify the specificity of the amplified products based on their melting temperatures. All reactions were run in triplicate.

P. acnes strain HL025PA1 = test: Extracellular porphyrin production in culture, type I strain with deoR; type: cell-based, Propionibacterium acnes; details: 10 μg/mL vitamin B12
Experimental: as §1
as §2, with “For mass spectrometry experiments, extracted porphyrins were directly injected onto an Agilent 6460 Triple Quad LC/MS system and each strain's m/z in the negative ion mode was identified.” left out
Statistical analysis for porphyrin production comparisons. The average amount of porphyrins produced by each strain under each culture condition was calculated based on the data from at least three independent experiments, with at least three replicates for each. […]

[4] = tested on: cbiL (vitamin B12 biosynthesis gene) in health-associated type II strains; test: cbiL gene expression by qRT-PCR, type II strains; type: cell-based, Propionibacterium acnes; details: 10 μg/mL vitamin B12 vs without, normalized to 16S rRNA
Experimental: as §5, §6

[5] = tested on: cbiL (vitamin B12 biosynthesis gene) in acne-associated type IA-2 strains; test: cbiL gene expression by qRT-PCR, type IA-2 strains; type: cell-based, Propionibacterium acnes; details: 10 μg/mL vitamin B12 vs without, normalized to 16S rRNA
Experimental: as §5, §6

P. acnes = details: 0.1 mg/mL LA (range 0.1 to 1.0 mg/mL assessed)
Text: P. acnes strains and cultures. […] Four RT4 and RT5 P. acnes strains, HL053PA1, HL045PA1, HL043PA1, and HL043PA2, were selected to represent type IA-2 strains, which were associated with the disease based on a 16S metagenomic study (J Invest Dermatol 133:2152-2160 (2013)). […] Three RT2 and RT6 strains, HL001PA1, HL103PA1, and HL042PA3, were selected to represent type II strains that were associated with healthy skin. To confirm the findings, an additional three type II strains, HL110PA3, HL106PA1, and HL050PA2, were also tested. […] For each experiment, 5 mL of reinforced clostridial broth was inoculated with 5×10^5 P. acnes cells per mL of culture. Cultures were grown to stationary phase anaerobically at 37° C. in a light-protected box. Cultures were supplemented on day 0 with vitamin B12 (10 μg/mL), 5-ALA (0.1 mg/mL), and/or LA (0.1 mg/mL). As controls, P. acnes strains were also cultured without supplementation. Three to five independent experiments with at least three replicates per experiment were performed for each strain, except strains HL110PA3, HL106PA1, and HL050PA2, which were tested in only one experiment with three replicates.

vitamin B12
average porphyrin level with vitamin B12 supplementation ([1]; 10 μg/mL vitamin B12, increasing from 6.5 μM without): 9.2 µM | fold increase in porphyrin production compared to substrate only ([1]; 10 μg/mL vitamin B12 in combination with 0.1 mg/mL 5-ALA): 2.7 fold | response of porphyrin production to vitamin B12 supplementation (P. acnes strains; type I strains, FIG. 12): increased porphyrin production | response of porphyrin production to vitamin B12 supplementation (P. acnes strains; type II and type III strains, data not shown): not observed | average porphyrin level with vitamin B12 supplementation ([2]; 10 μg/mL vitamin B12, 1.1 μM without, P≥0.77): 1.1 µM | further enhancement of porphyrin production compared to substrate only ([2]; 10 μg/mL vitamin B12 in combination with 0.1 mg/mL 5-ALA, P≥0.94): not in health-associated type II strains | counteraction by vitamin B12 of the inhibition of porphyrin biosynthesis by LA ([2]; 0.1 mg/mL LA with 10 μg/mL vitamin B12): not in health-associated type II strains | effect of vitamin B12 on porphyrin production level ([2]; strains HL110PA3, HL106PA1, HL050PA2, 10 μg/mL): not significantly affected | effect on vitamin B12 biosynthesis gene expression [3]: transcriptional repression | effect of vitamin B12 on porphyrin production (P. acnes strain HL025PA1): unaffected | average fold change of cbiL gene expression [4]: 0.24 fold | average fold change of cbiL gene expression [5]: 0.74 fold

CC(=O)CCC(=O)O [LA, levulinic acid]
effect on bacterial growth (P. acnes): did not significantly affect the bacterial growth | reduction of porphyrins by LA in combination with vitamin B12 [1]: no significant reduction of porphyrins | average reduction of porphyrin production compared to untreated cultures (P. acnes strains): 30%

NCC(=O)CCC(=O)O [5-ALA, 5-aminolevulinic acid]
average fold increase in porphyrin production ([1]; 0.1 mg/mL 5-ALA only vs untreated controls, P<0.0001): 2.2 fold | average fold increase in porphyrin production ([2]; 0.1 mg/mL 5-ALA only vs untreated controls, P≤0.06 except HL001PA1): 3.4 fold
